Test results as given in the NIST ThermoML archive (doi:10.1021/je900596d).

Details: Vibrating tube method

FC(F)=C(F)C(F)(F)F [hexafluoropropene]
Details	mass density [kg/m3]
263.41 K, 162.7 kPa, Fluid (supercritical or subcritical phases)	11.79
263.41 K, 164.3 kPa, Fluid (supercritical or subcritical phases)	11.92
263.41 K, 165.5 kPa, Fluid (supercritical or subcritical phases)	12.02
263.41 K, 167 kPa, Fluid (supercritical or subcritical phases)	12.14
263.41 K, 168.6 kPa, Fluid (supercritical or subcritical phases)	12.22
263.41 K, 170.1 kPa, Fluid (supercritical or subcritical phases)	12.35
263.41 K, 171.8 kPa, Fluid (supercritical or subcritical phases)	12.46
263.41 K, 173.2 kPa, Fluid (supercritical or subcritical phases)	12.64
263.41 K, 174.8 kPa, Fluid (supercritical or subcritical phases)	12.73
263.41 K, 176.4 kPa, Fluid (supercritical or subcritical phases)	12.82
263.41 K, 177.9 kPa, Fluid (supercritical or subcritical phases)	13
263.41 K, 179.4 kPa, Fluid (supercritical or subcritical phases)	13.09
263.41 K, 180.9 kPa, Fluid (supercritical or subcritical phases)	13.22
263.41 K, 182.4 kPa, Fluid (supercritical or subcritical phases)	13.34
263.41 K, 183.9 kPa, Fluid (supercritical or subcritical phases)	13.46
263.41 K, 185.4 kPa, Fluid (supercritical or subcritical phases)	13.58
263.41 K, 186.9 kPa, Fluid (supercritical or subcritical phases)	13.66
263.41 K, 188.4 kPa, Fluid (supercritical or subcritical phases)	13.77
263.41 K, 189.9 kPa, Fluid (supercritical or subcritical phases)	13.87
263.41 K, 191.3 kPa, Fluid (supercritical or subcritical phases)	14.01
263.41 K, 192.8 kPa, Fluid (supercritical or subcritical phases)	14.11
263.41 K, 194.2 kPa, Fluid (supercritical or subcritical phases)	14.27
263.41 K, 195.7 kPa, Fluid (supercritical or subcritical phases)	14.37
263.41 K, 197.1 kPa, Fluid (supercritical or subcritical phases)	14.48
263.41 K, 198.5 kPa, Fluid (supercritical or subcritical phases)	14.63
263.41 K, 199.9 kPa, Fluid (supercritical or subcritical phases)	14.76
263.41 K, 201.3 kPa, Fluid (supercritical or subcritical phases)	14.81
263.41 K, 202.7 kPa, Fluid (supercritical or subcritical phases)	14.96
263.41 K, 204.1 kPa, Fluid (supercritical or subcritical phases)	15.01
263.41 K, 205.5 kPa, Fluid (supercritical or subcritical phases)	15.14
263.41 K, 206.9 kPa, Fluid (supercritical or subcritical phases)	15.26
263.41 K, 208.3 kPa, Fluid (supercritical or subcritical phases)	15.38
263.41 K, 209.6 kPa, Fluid (supercritical or subcritical phases)	15.49
263.41 K, 211 kPa, Fluid (supercritical or subcritical phases)	15.6
263.41 K, 212.3 kPa, Fluid (supercritical or subcritical phases)	15.71
263.41 K, 213.6 kPa, Fluid (supercritical or subcritical phases)	15.8
263.41 K, 214.9 kPa, Fluid (supercritical or subcritical phases)	15.93
263.41 K, 216.3 kPa, Fluid (supercritical or subcritical phases)	16.03
263.41 K, 217.6 kPa, Fluid (supercritical or subcritical phases)	16.16
263.41 K, 218.8 kPa, Fluid (supercritical or subcritical phases)	16.24
263.41 K, 220.2 kPa, Fluid (supercritical or subcritical phases)	16.31
263.41 K, 220.6 kPa, Fluid (supercritical or subcritical phases)	16.37
263.41 K, 221.1 kPa, Fluid (supercritical or subcritical phases)	16.43
263.41 K, 221.5 kPa, Fluid (supercritical or subcritical phases)	16.47
263.41 K, 222 kPa, Fluid (supercritical or subcritical phases)	16.48
263.41 K, 222.4 kPa, Fluid (supercritical or subcritical phases)	16.53
263.41 K, 223.2 kPa, Fluid (supercritical or subcritical phases)	16.59
263.41 K, 223.6 kPa, Fluid (supercritical or subcritical phases)	16.63
263.41 K, 224 kPa, Fluid (supercritical or subcritical phases)	16.66
263.41 K, 224.4 kPa, Fluid (supercritical or subcritical phases)	16.7
263.41 K, 225.4 kPa, Fluid (supercritical or subcritical phases)	16.76
263.41 K, 226.2 kPa, Fluid (supercritical or subcritical phases)	16.85
263.41 K, 226.6 kPa, Fluid (supercritical or subcritical phases)	16.88
263.41 K, 227 kPa, Fluid (supercritical or subcritical phases)	16.94
263.41 K, 227.9 kPa, Fluid (supercritical or subcritical phases)	16.98
263.41 K, 228.6 kPa, Fluid (supercritical or subcritical phases)	17.03
263.41 K, 229 kPa, Fluid (supercritical or subcritical phases)	17.07
263.41 K, 229.9 kPa, Fluid (supercritical or subcritical phases)	17.2
263.41 K, 230.7 kPa, Fluid (supercritical or subcritical phases)	17.24
263.41 K, 231.4 kPa, Fluid (supercritical or subcritical phases)	17.29
263.41 K, 231.9 kPa, Fluid (supercritical or subcritical phases)	17.35
263.41 K, 232.6 kPa, Fluid (supercritical or subcritical phases)	17.43
263.41 K, 233 kPa, Fluid (supercritical or subcritical phases)	17.48
263.41 K, 233.4 kPa, Fluid (supercritical or subcritical phases)	17.55
263.41 K, 234.2 kPa, Fluid (supercritical or subcritical phases)	17.65
263.41 K, 234.9 kPa, Fluid (supercritical or subcritical phases)	17.92
263.41 K, 235.5 kPa, Fluid (supercritical or subcritical phases)	18.45
263.41 K, 236 kPa, Fluid (supercritical or subcritical phases)	19
263.49 K, 230.2 kPa, Liquid	1462.58
263.49 K, 230.4 kPa, Liquid	1462.56
263.49 K, 231 kPa, Liquid	1462.62
263.49 K, 231.9 kPa, Liquid	1462.66
263.49 K, 232.1 kPa, Liquid	1462.66
263.49 K, 235.3 kPa, Liquid	1462.67
263.49 K, 242.7 kPa, Liquid	1462.66
263.49 K, 244.5 kPa, Liquid	1462.72
263.49 K, 250.6 kPa, Liquid	1462.76
263.49 K, 257.4 kPa, Liquid	1462.73
263.49 K, 258.3 kPa, Liquid	1462.79
263.49 K, 263.2 kPa, Liquid	1462.89
263.49 K, 273.9 kPa, Liquid	1462.91
263.49 K, 279.5 kPa, Liquid	1462.96
263.49 K, 288.7 kPa, Liquid	1462.98
263.49 K, 322.8 kPa, Liquid	1463.12
263.49 K, 327.2 kPa, Liquid	1463.13
263.49 K, 333.9 kPa, Liquid	1463.18
263.49 K, 337.8 kPa, Liquid	1463.15
263.49 K, 341.2 kPa, Liquid	1463.16
263.49 K, 345.9 kPa, Liquid	1463.25
263.49 K, 354.4 kPa, Liquid	1463.25
263.49 K, 361.4 kPa, Liquid	1463.34
263.49 K, 370.3 kPa, Liquid	1463.38
263.49 K, 388 kPa, Liquid	1463.45
263.49 K, 390.4 kPa, Liquid	1463.48
263.49 K, 401.9 kPa, Liquid	1463.54
263.49 K, 413.3 kPa, Liquid	1463.57
263.49 K, 431.1 kPa, Liquid	1463.65
263.49 K, 433.8 kPa, Liquid	1463.67
263.49 K, 447.7 kPa, Liquid	1463.79
263.49 K, 467.1 kPa, Liquid	1463.9
263.49 K, 484.1 kPa, Liquid	1463.94
263.49 K, 491.3 kPa, Liquid	1463.96
263.49 K, 502.2 kPa, Liquid	1464.1
263.49 K, 506.6 kPa, Liquid	1464.15
263.49 K, 518.2 kPa, Liquid	1464.18
263.49 K, 527.6 kPa, Liquid	1464.19
263.49 K, 529.9 kPa, Liquid	1464.3
263.49 K, 550.9 kPa, Liquid	1464.3
263.49 K, 554.1 kPa, Liquid	1464.39
263.49 K, 574.4 kPa, Liquid	1464.38
263.49 K, 584.9 kPa, Liquid	1464.43
263.49 K, 596.2 kPa, Liquid	1464.57
263.49 K, 625.2 kPa, Liquid	1464.59
263.49 K, 652.6 kPa, Liquid	1464.81
263.49 K, 673 kPa, Liquid	1464.96
263.49 K, 705.5 kPa, Liquid	1465.02
263.49 K, 728.3 kPa, Liquid	1465.2
263.49 K, 751.2 kPa, Liquid	1465.25
263.49 K, 772.1 kPa, Liquid	1465.47
263.49 K, 792.6 kPa, Liquid	1465.54
263.49 K, 813.9 kPa, Liquid	1465.54
263.49 K, 853.1 kPa, Liquid	1465.89
263.49 K, 888.3 kPa, Liquid	1465.94
263.49 K, 912.8 kPa, Liquid	1466.07
263.49 K, 939.3 kPa, Liquid	1466.24
263.49 K, 962.1 kPa, Liquid	1466.39
263.49 K, 982.9 kPa, Liquid	1466.54
263.49 K, 1031 kPa, Liquid	1466.76
263.49 K, 1064.1 kPa, Liquid	1466.9
263.49 K, 1098.2 kPa, Liquid	1467.05
263.49 K, 1132.8 kPa, Liquid	1467.28
263.49 K, 1165.8 kPa, Liquid	1467.41
263.49 K, 1201.1 kPa, Liquid	1467.57
263.49 K, 1250.1 kPa, Liquid	1467.92
